From PMC5390315 (Scientific Reports, 2017)
Values joined by “and” are separate entries in the source; they are usually repeats but may differ in a detail not shown here. Equal entries are not always repeated.

Assays:
tubulin = assay: Inhibition of [3H]colchicine binding to tubulin; details: tubulin 1 μM, [3H]colchicine 5 μM
Experimental: (§1) To evaluate the effect of the compounds on tubulin assembly in vitro[41], varying concentrations of compounds were preincubated with 10 μM bovine brain tubulin in 0.8 M monosodium glutamate (pH adjusted to 6.6 with HCl in a 2.0 M stock solution) at 30 °C and then cooled to 0 °C. After addition of 0.4 mM GTP, the mixtures were transferred to 0 °C cuvettes in a recording spectrophotometer and warmed to 30 °C. Tubulin assembly was followed turbidimetrically at 350 nm. […] The capacity of the test compounds to inhibit colchicine binding to tubulin was measured as described, except that the reaction mixtures contained 1 μM tubulin, 5 μM [^3H]colchicine and 1 or 5 μM test compound.

SEM cells = assay: Antiproliferative MTT assay, SEM; assay type: cell-based, human; details: Homo sapiens, 72 h, mean ± SE
Experimental: (§2) Human T-cell leukemia (Jurkat) and human B-cell leukemia (SEM and RS4;11) cells were grown in RPMI-1640 medium (Gibco, Milano, Italy). Breast adenocarcinoma (MCF-7), human cervix carcinoma (HeLa), human lung adenocarcinoma (A549) and human colon adenocarcinoma (HT-29) cells were grown in DMEM medium (Gibco, Milano, Italy), all supplemented with 115 units/mL penicillin G (Gibco, Milano, Italy), 115 μg/mL streptomycin (Invitrogen, Milano, Italy), and 10% fetal bovine serum (FBS; Invitrogen, Milano, Italy). Stock solutions (10 mM) of the different compounds were obtained by dissolving them in DMSO. Individual wells of a 96-well tissue culture microtiter plate were inoculated with 100 μL of complete medium containing 8 × 10^3 cells. The plates were incubated at 37 °C in a humidified 5% CO2 incubator for 18 h prior to the experiments. After medium removal, 100 μL of fresh medium containing the test compound at different concentrations was added to each well in triplicate and incubated at 37 °C for 72 h. The percentage of DMSO in the medium never exceeded 0.25%. This was also the maximum DMSO concentration in all cell-based assays described below.

A549 = assay: Antiproliferative MTT assay, A549; assay type: cell-based, human; details: Homo sapiens, A549, 72 h, mean ± SE
Experimental: as §2

HeLa cells [1] = assay: Western blot analysis of cell cycle and apoptosis proteins; assay type: cell-based, human
Experimental: HeLa cells were incubated in the presence of 4i and, after different times, were collected, centrifuged, and washed two times with ice cold phosphate buffered saline (PBS). The pellet was then resuspended in lysis buffer. After the cells were lysed on ice for 30 min, lysates were centrifuged at 15000× g at 4 °C for 10 min. The protein concentration in the supernatant was determined using the BCA Protein Assay (Pierce, Italy). Equal amounts of protein (10 μg) were resolved using sodium dodecyl sulfate-polyacrylamide gel electrophoresis (SDS-PAGE) (Criterion Precast, BioRad, Italy) and transferred to a PVDF Hybond-P membrane (GE Healthcare). Membranes were blocked with a bovine serum albumin solution (5% in Tween PBS 1X), the membranes being gently rotated overnight at 4 °C. Membranes were then incubated with primary antibodies against caspase-9, PARP, cdc25c, p-H2AX^Ser139, cyclin B, p-cdc2^Tyr15 (all from Cell Signaling) or β-actin (Sigma-Aldrich) for 2 h at room temperature. Membranes were next incubated with peroxidase labeled secondary antibodies for 60 min. All membranes were visualized using ECL Select (GE Healthcare), and images were acquired using an Uvitec-Alliance imaging system (Uvitec, Cambridge, UK). To ensure equal protein loading, each membrane was stripped and reprobed with anti-β-actin antibody.

Jurkat cells = assay: ROS production (H2-DCFDA), Jurkat; assay type: cell-based, human; details: 100 nM, untreated about 4%
bovine brain tubulin = assay: Inhibition of tubulin polymerization; assay type: biochemical; details: tubulin at 10 μM; read-out: Tubulin assembly IC50 ± S.D
Experimental: as §1

Jurkat = assay: Antiproliferative MTT assay, Jurkat; assay type: cell-based, human; details: Homo sapiens, Jurkat, 72 h, mean ± SE
Experimental: as §2

HeLa cells [2] = assay: Mitotic cells by p-histone H3/PI flow cytometry; assay type: cell-based, human; details: 100 nM, 24 h, untreated 1.3%
HeLa cells [3] = assay: ROS production (H2-DCFDA), HeLa; assay type: cell-based, human; details: 100 nM, untreated about 4%

For `CCOc1ccc(-c2oc(C)nc2-c2cc(OC)c(OC)c(OC)c2)cc1` [Compound 4i, 4-(3,4,5-Trimethoxyphenyl)-5-(4-ethoxyphenyl)-2-methyloxazole], the “Colchicine binding % inhibition ± S.D, 1 μM drug” value (tubulin; 1 μM drug) was 62 ± 0.4%, the “Colchicine binding % inhibition ± S.D, 5 μM drug” value (tubulin; 5 μM drug) was 82% and 86 ± 1% and the IC50 (SEM cells) was 6.1 ± 2.3 nM. For the same molecule, the IC50 (A549) was 0.5 ± 0.1 nM, the “expression of Mcl-1” value (HeLa cells [1]; 100 nM) was “only slightly decreased” and the “total cdc25c expression” value (HeLa cells [1]; 100 nM, 24 and 48 h) was “reduced”. The XIAP expression (HeLa cells [1]; 24 and 48 h) was “significantly reduced”, the “cyclin B1 expression” value (HeLa cells [1]; 24 and 48 h, concentration dependent) was “marked increase” and the PARP cleavage (HeLa cells [1]; 50 or 100 nM, 24 and 48 h) was “appearance of its cleavage fragments”. The “phosphorylation of γH2A.X (Ser139)” value (HeLa cells [1]; 48 h) was “great increase”, the “expression of phosphorylated cdc2” value (HeLa cells [1]; most noticeable at 24 h, 100 nM) was “decreased” and the “DCF positive cells (ROS production)” value (Jurkat cells) was 25–30%. The IC50 (bovine brain tubulin) was 560 ± 100 nM, the IC50 (Jurkat) was 4.1 ± 1.1 nM and the “percentage of mitotic cells (p-histone H3)” value (HeLa cells [2]) was roughly 46%. The “DCF positive cells (ROS production)” value (HeLa cells [3]) was 25–30%.
